Data taken from article PMC8112869, “Therapeutic inhibition of keratinocyte TRPV3 sensory channel by local anesthetic dyclonine” (eLife, 2021).

Columns and labels:
TRPV3 = target: T1, TRPV3 (Mus musculus, UniProt Q8K424); test: Whole-cell recording of carvacrol-evoked TRPV3 currents in HEK 293T cells; assay type: cell-based
T1 construct: expressed in transfected cells; host or cells: HEK 293T
T1 sequence (Q8K424 1-791): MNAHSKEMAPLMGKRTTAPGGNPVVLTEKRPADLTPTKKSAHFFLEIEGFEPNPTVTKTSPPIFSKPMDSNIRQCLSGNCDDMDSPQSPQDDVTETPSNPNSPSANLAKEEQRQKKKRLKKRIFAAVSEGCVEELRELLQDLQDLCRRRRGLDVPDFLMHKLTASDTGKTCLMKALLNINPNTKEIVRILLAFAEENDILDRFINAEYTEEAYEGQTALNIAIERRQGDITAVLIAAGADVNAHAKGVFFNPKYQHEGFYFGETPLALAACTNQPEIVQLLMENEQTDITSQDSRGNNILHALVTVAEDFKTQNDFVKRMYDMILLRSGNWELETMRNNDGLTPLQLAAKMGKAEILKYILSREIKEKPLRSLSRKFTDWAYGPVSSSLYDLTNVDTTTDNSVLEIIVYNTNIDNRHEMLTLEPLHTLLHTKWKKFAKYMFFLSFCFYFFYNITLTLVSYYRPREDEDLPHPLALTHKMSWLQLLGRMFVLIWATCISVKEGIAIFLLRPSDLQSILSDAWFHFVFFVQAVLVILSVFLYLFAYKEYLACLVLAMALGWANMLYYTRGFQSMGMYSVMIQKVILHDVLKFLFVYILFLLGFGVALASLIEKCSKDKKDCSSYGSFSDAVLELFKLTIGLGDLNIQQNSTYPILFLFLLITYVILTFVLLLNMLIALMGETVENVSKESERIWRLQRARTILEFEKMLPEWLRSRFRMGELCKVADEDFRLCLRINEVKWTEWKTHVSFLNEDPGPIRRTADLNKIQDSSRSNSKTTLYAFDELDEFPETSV
Excerpt: (§1) Conventional whole-cell and excised patch-clamp recording methods were used. For the recombinant expressing system, green fluorescent EGFP was used as a surface marker for gene expression. Recording pipettes were pulled from borosilicate glass capillaries (World Precision Instruments) and fire-polished to a resistance between 2 and 4 MΩ when filled with internal solution containing (in mM) 140 CsCl, 2.0 MgCl2, 5 EGTA, and 10 HEPES, pH 7.4 (adjusted with CsOH). Bath solution contained (in mM): 140 NaCl, 5 KCl, 3 EGTA, and 10 HEPES, pH 7.4 adjusted with NaOH. For recordings in keratinocytes, the bath saline consisted of (in mM) 140 NaCl, 5 KCl, 2 MgCl2, 2 CaCl2, 10 glucoses, and 10 HEPES, pH 7.4 adjusted with NaOH, and the pipette solution contained (in mM) 140 CsCl, 5 EGTA, and 10 HEPES, pH 7.3 adjusted with CsOH. […] For a subset of recordings, currents were amplified using an Axopatch 200B amplifier (Molecular Devices, Sunnyvale, CA) and recorded through a BNC-2090/MIO acquisition system (National Instruments, Austin, TX) using QStudio developed by Dr. Feng Qin at State University of New York at Buffalo. […] As determined by the conductance tests, the solution around a patch under study was fully controlled by the application of a flow rate of 100 μl/min or greater. […]

mouse TRPV3 = target: T2, mouse TRPV3 (Mus musculus, UniProt Q8K424); test: Voltage-step whole-cell recording of TRPV3 currents (40 μM 2-APB) in HEK 293T cells; assay type: cell-based; design: expressed in transfected cells; host or cells: HEK 293T; conditions: steps –160 to +180 mV, dyclonine 10, 30 μM, RR 10 μM
T2 sequence (Q8K424 1-791): T1 sequence (Q8K424 1-791)
Excerpt: as §1

- Hill coefficient nH (TRPV3; carvacrol-evoked): 2.1 ± 0.41
Compound: CCCCOc1ccc(C(=O)CCN2CCCCC2)cc1 [dyclonine]
- IC50 (TRPV3; 500 μM carvacrol, after sensitization by 300 μM 2-APB, –60 mV, read-out: IC50 for inhibition of carvacrol-evoked TRPV3 currents): 3.5 ± 0.34 µM
- effect on TRPV3-mediated inward and outward currents (voltage dependence) (mouse TRPV3): the inhibition occurred independently of the membrane potential
